Data on two compounds can be found in publication PMC10846046, “The mechanism of action of auranofin analogs in B. cenocepacia revealed by chemogenomic profiling” (Microbiology Spectrum, 2024).

In assay [1] the target is T1, TrxB (thioredoxin reductase) (Burkholderia cenocepacia, UniProt B4EBR9).
T1 construct: full gene in pET24b+, C-terminal 6xHis tag kept, E. coli BL21(DE3); Ni-NTA and size exclusion
Description: DTNB reduction, absorbance at […] nm. The format is biochemical.

The target in assay [2] is T2, GOR (glutathione reductase) (Burkholderia cenocepacia, UniProt B4E8M8).
T2 construct: full gene in pET-22+, C-terminal 6xHis tag kept, E. coli BL21(DE3)-Gold; purified as TrxB
T2 sequence (B4E8M8 1-451): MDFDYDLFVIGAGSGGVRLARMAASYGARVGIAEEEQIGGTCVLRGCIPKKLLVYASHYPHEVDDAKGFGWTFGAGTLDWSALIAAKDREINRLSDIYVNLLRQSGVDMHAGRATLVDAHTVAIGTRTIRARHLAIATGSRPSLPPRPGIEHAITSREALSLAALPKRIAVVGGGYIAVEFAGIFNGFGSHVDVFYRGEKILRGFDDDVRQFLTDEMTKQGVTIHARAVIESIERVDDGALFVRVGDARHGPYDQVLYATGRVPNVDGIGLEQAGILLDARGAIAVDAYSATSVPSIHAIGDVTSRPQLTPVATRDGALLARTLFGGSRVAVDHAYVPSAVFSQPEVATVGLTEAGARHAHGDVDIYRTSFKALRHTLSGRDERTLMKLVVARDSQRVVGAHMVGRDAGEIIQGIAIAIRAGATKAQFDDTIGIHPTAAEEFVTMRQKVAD
Description: NADPH consumption, absorbance at […] nm. The format is biochemical. The following applies: GSSG as electron acceptor.

T1 sequence (B4EBR9 1-320): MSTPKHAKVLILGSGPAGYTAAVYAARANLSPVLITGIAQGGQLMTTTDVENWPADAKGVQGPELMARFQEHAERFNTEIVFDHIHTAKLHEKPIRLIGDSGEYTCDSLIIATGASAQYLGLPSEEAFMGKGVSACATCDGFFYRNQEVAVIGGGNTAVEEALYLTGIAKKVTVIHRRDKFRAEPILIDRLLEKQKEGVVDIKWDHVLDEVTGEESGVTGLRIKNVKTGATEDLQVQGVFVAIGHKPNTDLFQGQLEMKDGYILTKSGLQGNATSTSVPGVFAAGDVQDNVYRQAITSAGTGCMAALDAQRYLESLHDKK

As for `NC(=O)C1=CN([C@@H]2O[C@H](COP(=O)(O)OP(=O)(O)OC[C@H]3O[C@@H](n4cnc5c(N)ncnc54)[C@H](OP(=O)(O)O)[C@@H]3O)[C@@H](O)[C@H]2O)C=CC1` [NADPH], in assay [1] (DTNB as electron acceptor), the “DTNB reduction, absorbance at 412 nm” value was “in the presence of substrate DTNB is reduced to TNB, with NADPH as a source”. Also, the “NADPH consumption, absorbance at 340 nm” value in assay [2] is “oxidized glutathione is reduced to reduced glutathione, with NADPH as a source of electrons”.
On to `O=C(O)c1cc(SSc2ccc([N+](=O)[O-])c(C(=O)O)c2)ccc1[N+](=O)[O-]` [DTNB], for which the “DTNB reduction, absorbance at 412 nm” value in assay [1] (NADPH as electron source) is given as “in the presence of substrate DTNB is reduced to TNB, with NADPH as a source”.
